Source: ChEMBL document CHEMBL5104126, “Discovery of 2,3-dihydro-1H-pyrrolo[3,4-b]quinolin-1-one derivatives as possible antileishmanial agents” (RSC Med Chem, 2022)
pIC50: −log10 of the molar value. Converted amounts (≈) assume the structure as drawn. The source made the active and inactive calls. The calls are words filed in the database; no cut-off is given here.

Legend:
Leishmania donovani [1] = assay: Antileishmanial activity against Leishmania donovani MHOM/IN/80/Dd8 amastigotes harboring luciferase gene infected in mouse J774 cells assessed as inhibition of parasite viability incubated for 72 hrs by Steady-Glo reagent based luciferase assay relative to control; type: functional, organism-based; conditions: MHOM/IN/80/Dd8, J774, 72 h
Leishmania donovani [2] = assay: Antileishmanial activity against Leishmania donovani MHOM/IN/80/Dd8 promastigotes harboring luciferase gene infected in mouse J774 cells assessed as inhibition of parasite viability at 50 uM incubated for 72 hrs by Steady-Glo reagent based luciferase assay relative to control; type: functional; conditions: MHOM/IN/80/Dd8, J774
Leishmania donovani [3] = assay: Induction of apoptosis in Leishmania donovani MHOM/IN/80/Dd8 promastigotes assessed as decrease in cytochrome c level in mitochondria at 50 uM incubated upto 48 hrs by immunoblot analysis; type: functional, organism-based; conditions: TDE = time-dependent effect
[4] = Cytotoxicity against mouse macrophage J774 cells assessed as inhibition of cell viability incubated for 72 hrs by MTT assay; type: toxicity, cell-based
Leishmania donovani [5] = assay: Induction of apoptosis in Leishmania donovani MHOM/IN/80/Dd8 promastigotes assessed as ladder like DNA at 50 uM incubated for 72 hrs by agarose gel electrophoresis; type: functional, organism-based
Leishmania donovani [6] = assay: Antileishmanial activity against Leishmania donovani MHOM/IN/80/Dd8 promastigotes harboring luciferase gene infected in mouse J774 cells assessed as inhibition of parasite viability at 25 uM incubated for 72 hrs by Steady-Glo reagent based luciferase assay relative to control; type: functional; conditions: MHOM/IN/80/Dd8, J774
Leishmania donovani [7] = assay: Antileishmanial activity against Leishmania donovani MHOM/IN/80/Dd8 amastigotes harboring luciferase gene infected in mouse J774 cells assessed as inhibition of parasite viability at 25 uM incubated for 72 hrs by Steady-Glo reagent based luciferase assay relative to control; type: functional; conditions: MHOM/IN/80/Dd8, J774
Leishmania donovani [8] = assay: Antileishmanial activity against Leishmania donovani MHOM/IN/80/Dd8 promastigotes harboring luciferase gene infected in mouse J774 cells assessed as inhibition of parasite viability incubated for 72 hrs by Steady-Glo reagent based luciferase assay relative to control; type: functional, organism-based; conditions: MHOM/IN/80/Dd8, J774, 72 h
Leishmania donovani [9] = assay: Induction of apoptosis in Leishmania donovani MHOM/IN/80/Dd8 promastigotes assessed as increase in cytochrome c level in cytosol at 50 uM incubated upto 48 hrs by immunoblot analysis; type: functional, organism-based; conditions: TDE = time-dependent effect
[10] = Metabolic stability in mouse liver microsomes assessed as half life at 10 ug/ml incubated for 1 hrs in presence of NADPH by UPLC analysis; type: ADME, Microsome; conditions: dose 10 µg/ml
Leishmania donovani [11] = assay: Induction of cell cycle arrest in Leishmania donovani MHOM/IN/80/Dd8 promastigotes assessed as increase in subG0/G1 phase at 50 uM incubated for 72 hrs by PI staining based flow cytometry; type: functional
J774 [12] = assay: Cytotoxicity against mouse macrophage J774 cells assessed as reduction in cell viability at 50 to 100 uM incubated for 72 hrs by MTT assay; type: toxicity, cell-based; conditions: j774, 72 h, dose 50-100 µM
[13] = Metabolic stability in mouse liver microsomes assessed as elimination rate constant at 10 ug/ml incubated for 1 hrs in presence of NADPH by UPLC analysis; type: ADME, Microsome; conditions: dose 10 µg/ml
Leishmania donovani [14] = assay: Antileishmanial activity against Leishmania donovani MHOM/IN/80/Dd8 promastigotes infected in Balb/c mouse assessed as inhibition organ parasite burden in spleen at 50 mg/kg, ip for 7 days by Giemsa staining based microscopy; type: functional; conditions: MHOM/IN/80/Dd8, 168 h, time 7 day
[15] = Stability of compound in SIF assessed as parent compound remaining at 10 ug/ml incubated for 2 hrs by UPLC analysis; type: ADME; conditions: at 10 µg/mL, read-out: Stability
[16] = Metabolic stability in mouse liver microsomes assessed as parent compound remaining at 10 ug/ml incubated for 1 hrs in presence of NADPH by UPLC analysis; type: ADME, Microsome; conditions: at 10 µg/mL, read-out: Stability
[17] = Metabolic stability in mouse liver microsomes assessed as intrinsic clearance at 10 ug/ml measured per mg protein incubated for 1 hrs in presence of NADPH by UPLC analysis; type: ADME, Microsome; conditions: dose 10 µg/ml, read-out: CLH
Leishmania donovani [18] = assay: Antileishmanial activity against Leishmania donovani MHOM/IN/80/Dd8 promastigotes infected in Balb/c mouse assessed as inhibition organ parasite burden in liver at 6.25 mg/kg, ip for 7 days by Giemsa staining based microscopy; type: functional; conditions: MHOM/IN/80/Dd8, 168 h, time 7 day
Leishmania donovani [19] = assay: Antileishmanial activity against Leishmania donovani MHOM/IN/80/Dd8 promastigotes infected in Balb/c mouse assessed as inhibition organ parasite burden in spleen at 12.5 mg/kg, ip for 7 days by Giemsa staining based microscopy; type: functional; conditions: MHOM/IN/80/Dd8, 168 h, time 7 day
Leishmania donovani [20] = assay: Antileishmanial activity against Leishmania donovani MHOM/IN/80/Dd8 promastigotes infected in Balb/c mouse assessed as inhibition organ parasite burden in spleen at 6.25 mg/kg, ip for 7 days by Giemsa staining based microscopy; type: functional; conditions: MHOM/IN/80/Dd8, 168 h, time 7 day
[21] = Octanol/water partition coefficient, logP of the compound incubated for 24 hrs by shake flask method; type: physicochemical
[22] = Stability of compound in mouse plasma assessed as parent compound remaining at 10 ug/ml incubated for 2 hrs by UPLC analysis; type: ADME, cell-free; conditions: at 10 µg/mL, read-out: Stability
Leishmania donovani [23] = assay: Antileishmanial activity against Leishmania donovani MHOM/IN/80/Dd8 promastigotes infected in Balb/c mouse assessed as inhibition organ parasite burden in liver at 12.5 mg/kg, ip for 7 days by Giemsa staining based microscopy; type: functional; conditions: MHOM/IN/80/Dd8, 168 h, time 7 day
[24] = Selectivity index, ratio of CC50 for cytotoxicity against human HepG2 cells to IC50 for antileishmanial activity against Leishmania donovani MHOM/IN/80/Dd8 amastigotes harboring luciferase gene infected in mouse J774 cells; type: toxicity, cell-based; conditions: read-out: Ratio CC50/IC50
[25] = Stability of compound in SGF assessed as parent compound remaining at 10 ug/ml incubated for 2 hrs by UPLC analysis; type: ADME; conditions: at 10 µg/mL, read-out: Stability
J774 [26] = assay: Cytotoxicity against mouse macrophage J774 cells assessed as reduction in cell viability at 6.25 to 25 uM incubated for 72 hrs by MTT assay; type: toxicity, cell-based; conditions: j774, 72 h, dose 6.25-25 µM
[27] = Cytotoxicity against human HepG2 cells assessed as inhibition of cell viability incubated for 72 hrs by MTT assay; type: toxicity, cell-based
Leishmania donovani [28] = assay: Antileishmanial activity against Leishmania donovani MHOM/IN/80/Dd8 promastigotes infected in Balb/c mouse assessed as inhibition organ parasite burden in liver at 50 mg/kg, ip for 7 days by Giemsa staining based microscopy; type: functional; conditions: MHOM/IN/80/Dd8, 168 h, time 7 day
[29] = Aqueous solubility of the compound incubated for 24 hrs by shake flask method; type: physicochemical; conditions: water
Leishmania donovani [30] = assay: Induction of mitochondrial membrane potential loss in Leishmania donovani MHOM/IN/80/Dd8 promastigotes assessed as apoptotic cells at 50 uM incubated for 24 hrs by JC-1 dye staining based flow cytometry; type: functional
Leishmania donovani [31] = assay: Induction of apoptosis in Leishmania donovani MHOM/IN/80/Dd8 promastigotes assessed as breakdown of nuclear DNA at 50 uM incubated for 72 hrs by agarose gel electrophoresis; type: functional, organism-based
[32] = Selectivity index, ratio of CC50 for cytotoxicity against mouse macrophage J774 cells to IC50 for antileishmanial activity against Leishmania donovani MHOM/IN/80/Dd8 amastigotes harboring luciferase gene infected in mouse J774 cells; type: toxicity, cell-based; conditions: read-out: Ratio CC50/IC50
Leishmania donovani [33] = assay: Induction of mitochondrial membrane potential loss in Leishmania donovani MHOM/IN/80/Dd8 promastigotes assessed as apoptotic cells at 50 uM incubated for 48 hrs by JC-1 dye staining based flow cytometry; type: functional

COc1ccc(-c2c3c(nc4ccc(OC)cc24)CN(C(C)(C)C(=O)NC(C)(C)C)C3=O)cc1
pIC50 (Leishmania donovani [1]): 5.13
inhibition at 50 µM (Leishmania donovani [2]): 86.5%
Activity (Leishmania donovani [3]): Tde
CC50 at 72 h [4]: 65.1 µM
Activity (Leishmania donovani [5]): Active
inhibition at 25 µM (Leishmania donovani [6]): 85.4%
inhibition at 25 µM (Leishmania donovani [7]): 85.5%
pIC50 (Leishmania donovani [8]): 5.08
Activity (Leishmania donovani [9]): Tde
half-life at 10 ug/ml [10]: 5.07 h
Activity (Leishmania donovani [11]): 58.4%
Activity (J774 [12]): >= 30%
k el at 1 h, 10 ug/ml [13]: 3.89e-05 s⁻¹
inhibition in vivo at 50 mg/kg (Leishmania donovani [14]): 63.4%
remaining at 2 h, 10 ug/ml [15]: 85.5%
remaining at 1 h, 10 ug/ml [16]: 86.8%
microsomal CLint at 10 ug/ml [17]: 4.61 µL/min/mg
inhibition in vivo at 6.25 mg/kg (Leishmania donovani [18]): 45.1%
inhibition in vivo at 12.5 mg/kg (Leishmania donovani [19]): 61.1%
inhibition in vivo at 6.25 mg/kg (Leishmania donovani [20]): 42.4%
logP at 24 h [21]: 2.7
remaining at 2 h, 10 ug/ml [22]: 88.7%
inhibition in vivo at 12.5 mg/kg (Leishmania donovani [23]): 56.2%
selectivity ratio [24]: 7.62
remaining at 2 h, 10 ug/ml [25]: 87.5%
Activity (J774 [26]): Non-Toxic
CC50 at 72 h [27]: 63.7 µM
inhibition in vivo at 50 mg/kg (Leishmania donovani [28]): 57.8%
solubility thermodynamic at 24 h [29]: 157 µg/mL (≈ 340 µM)
Activity (Leishmania donovani [30]): 36%
Activity (Leishmania donovani [31]): Active
selectivity ratio [32]: 7.79
Activity (Leishmania donovani [33]): 69.1%
